Several values for one entry are separate records, joined by “and”; a condition that tells them apart may be missing. Equal values may be shown once. Inconclusive results and toxic doses are left out. Rule as the data show it: active = T/C of 150% or more; inactive = T/C below 125%.
Test system: L1210 leukemia ip in BDF1 mice, survival T/C
Experiment: NCI In Vivo Anticancer Drug Screen. Data for tumor model L1210 Leukemia (intraperitoneal) in B6D2F1 (BDF1) mice
Conditions: endpoint: mean survival time, higher = longer survival
Summary of the method: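 Transplantable tumor model; survival measured in treated vs vehicle control mice. Value = treated/control.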

[1] = dose: 100.0 mg/kg/injection, schedule: Q04DX002 (ip), vehicle: Klucel (hydroxypropylcellulose) (HPC)
[2] = dose: 200.0 mg/kg/injection, schedule: Q04DX002 (ip), vehicle: Klucel (hydroxypropylcellulose) (HPC)
[3] = dose: 400.0 mg/kg/injection, schedule: Q04DX002 (ip), vehicle: Klucel (hydroxypropylcellulose) (HPC)
[4] = dose: 100.0 mg/kg/injection, schedule: Q01DX009 (ip), vehicle: Klucel (hydroxypropylcellulose) (HPC)
[5] = dose: 200.0 mg/kg/injection, schedule: Q01DX009 (ip), vehicle: Klucel (hydroxypropylcellulose) (HPC)
[6] = dose: 400.0 mg/kg/injection, schedule: Q01DX009 (ip), vehicle: Klucel (hydroxypropylcellulose) (HPC)
[7] = dose: 100.0 mg/kg/injection, schedule: Q01DX009 (ip), vehicle: saline with Tween-80
[8] = dose: 100.0 mg/kg/injection, schedule: Q04DX003 (ip), vehicle: Klucel (hydroxypropylcellulose) (HPC)
[9] = dose: 200.0 mg/kg/injection, schedule: Q04DX003 (ip), vehicle: Klucel (hydroxypropylcellulose) (HPC)
[10] = dose: 400.0 mg/kg/injection, schedule: Q04DX003 (ip), vehicle: Klucel (hydroxypropylcellulose) (HPC)

Measured: T/C

CC(C)N(C)N=Nc1n[nH]nc1C(N)=O
inactive: dose: 200.0 mg/kg/injection, schedule: Q01DX Z (ip), vehicle: carboxymethylcellulose (CMC) 104 % of control

CC(C)c1ccc(NC(=S)NCCO)cc1
inactive: [1] 105 % of control | [2] 105 % of control | [3] 105 % of control

COc1cc(N2C(N)=NC(N)=NC2(C)C)cc(OC)c1OC
inactive: dose: 6.25 mg/kg/injection, schedule: Q01DX009 (ip), vehicle: saline 98 % of control | dose: 12.5 mg/kg/injection, schedule: Q01DX009 (ip), vehicle: saline 105 % of control | dose: 25.0 mg/kg/injection, schedule: Q01DX009 (ip), vehicle: saline 107 % of control

OC1CCCC(c2ccccc2)C1 (stereo not drawn)
inactive: [4] 97 % of control | [5] 97 % of control | [6] 95 % of control

O=C1CCCC/C1=C/c1ccco1
inactive: [1] 95 % of control | [2] 99 % of control | [3] 99 % of control

CCCCOC(=O)CCCCC(=O)OCCCC
inactive: [4] 104 % of control | [5] 100 % of control | [6] 95 % of control

O=C(NC(=S)Nc1ccc(Br)cc1)c1ccc(Cl)cc1Cl
inactive: dose: 100.0 mg/kg/injection, schedule: Q01DX001 (ip), vehicle: saline with Tween-80 92 % of control | [7] 97 % of control and 102 % of control | dose: 100.0 mg/kg/injection, schedule: Q04DX002 (ip), vehicle: saline with Tween-80 95 % of control and 90 % of control | dose: 100.0 mg/kg/injection, schedule: Q04DX003 (ip), vehicle: saline with Tween-80 95 % of control | dose: 200.0 mg/kg/injection, schedule: Q01DX001 (ip), vehicle: saline with Tween-80 90 % of control | dose: 200.0 mg/kg/injection, schedule: Q01DX009 (ip), vehicle: saline with Tween-80 97 % of control and 88 % of control | dose: 200.0 mg/kg/injection, schedule: Q04DX002 (ip), vehicle: saline with Tween-80 93 % of control and 101 % of control | dose: 200.0 mg/kg/injection, schedule: Q04DX003 (ip), vehicle: saline with Tween-80 98 % of control | dose: 400.0 mg/kg/injection, schedule: Q01DX001 (ip), vehicle: saline with Tween-80 97 % of control | dose: 400.0 mg/kg/injection, schedule: Q01DX009 (ip), vehicle: saline with Tween-80 97 % of control and 90 % of control | dose: 400.0 mg/kg/injection, schedule: Q04DX002 (ip), vehicle: saline with Tween-80 90 % of control and 92 % of control | dose: 400.0 mg/kg/injection, schedule: Q04DX003 (ip), vehicle: saline with Tween-80 93 % of control

CCCCOP(=O)(Nc1ccccc1)OCCCC
inactive: dose: 100.0 mg/kg/injection, schedule: Q04DX002 (sc), vehicle: olive oil, sesame oil, peanut oil 103 % of control | dose: 200.0 mg/kg/injection, schedule: Q04DX002 (sc), vehicle: olive oil, sesame oil, peanut oil 103 % of control | dose: 400.0 mg/kg/injection, schedule: Q04DX002 (sc), vehicle: olive oil, sesame oil, peanut oil 90 % of control

Nc1cc2c3ccccc3ccc2c2ccccc12
inactive: dose: 67.0 mg/kg/injection, schedule: Q01DX009 (ip), vehicle: saline with Tween-80 105 % of control | [7] 105 % of control | dose: 150.0 mg/kg/injection, schedule: Q01DX009 (ip), vehicle: saline with Tween-80 96 % of control | dose: 225.0 mg/kg/injection, schedule: Q01DX009 (ip), vehicle: saline with Tween-80 97 % of control

CCCCSCC(N)CO (stereo not drawn)
inactive: dose: 100.0 mg/kg/injection, schedule: Q04DX003 (ip), vehicle: saline 101 % of control | dose: 200.0 mg/kg/injection, schedule: Q04DX003 (ip), vehicle: saline 101 % of control

COc1ccc(CCN)cc1F
inactive: [1] 98 % of control | [2] 102 % of control

CCOC(=O)N1Cc2cc3ccccc3nc2C1CC(=O)O (stereo not drawn)
inactive: [4] 104 % of control | [8] 105 % of control | [5] 98 % of control | [9] 88 % of control | [6] 102 % of control | [10] 96 % of control

O=[N+]([O-])c1ccc(Cl)c(OCCCBr)c1
inactive: [8] 108 % of control | [9] 95 % of control | [10] 94 % of control
